Key:
[1] = plasma metabolic stability, canine; type: in vitro ADME; settings: dog, 120 min
Protocol: (§1) Plasma Metabolic Stability
(§2) Termination of the reaction was accomplished by the addition of 3× volume of acetonitrile and centrifugation at 16000 g for 20 minutes. The supernatant was taken for a LC-MS/MS analysis. The chromatographic column: Waters XSelect HSS T3; the flow rate: 500 μL/min; the eluent: A, water (0.1% formic acid); B, acetonitrile (0.1% formic acid); the gradient elution: 0-1.5 min, 5% B, 1.5-9 min, 5%-80% B, 9-12 min, 80%-100% B, 12-14 min, 100% B, 14-14.3 min, 100%-5% B, 14.3-15 min, 5% B.

[2] = liver microsomal metabolic stability, human
Protocol: (§3) Hepatic Microsomal Metabolic Stability
(§4) A13bGa1 was co-incubated with the mouse, rat, canine, monkey and human […] and the incubation medium at a final drug concentration of 1 μM in the incubation system for 60 minutes. Samples were taken and analyzed at time points 0, 15, 30, 45 and 60 minutes during the incubation. The reaction was terminated by adding an amount of acetonitrile solution containing the internal standard. […] The residual percentage, half-life, intrinsic clearance, amplified clearance, hepatic clearance and hepatic extraction ratio were determined. The entire experiment was performed in triplicate. All data calculations were performed by Microsoft Excel software. Peak areas were detected by extracting the ionic spectrum. The in vitro half-life (t1/2) of the parent compound was detected by fitting the natural logarithm of the percentage elimination of the parent compound linearly to time.
(§5) The in vitro intrinsic clearance (in μL/min/mg protein) was calculated using the following equation: in vitro CLint=kV/N
(§6) The amplified clearance (in mL/min/kg) was calculated using the following equation: Amplified CLint=kV/N×the amplification factor
(§7) The hepatic clearance (in mL/min/kg) was calculated using the following equation: The predicted hepatic CLH=(Q×Fu/RB×the amplified CLint)/(Q+Fu/RB×the amplified CLint) • V=the incubation volume per well (0.2 mL); • N=the total amount of protein (mg) • Q=the hepatic blood flow (mL/min/kg) • Fu=the plasma free rate (assumed to be 1) • RB=the whole blood partition coefficient (assumed to be 1)
(§8) The hepatic uptake rate was calculated using the following equation:
(§9) The hepatic extraction ratio (ER)=(the predicted hepatic CLH)/Q

[3] = biological target: E. coli-derived β-galactosidase (Escherichia coli, UniProt P00722); assay: in vitro enzymatic hydrolysis of the prodrug by β-galactosidase (HPLC); type: biochemical; settings: role: substrate, 10 μM, β-galactosidase 10 U/μM, PBS 0.01 M pH 7.3, 37 °C, 6 hours, FIG. 2C
Sequence of E. coli-derived β-galactosidase (P00722 whole entry): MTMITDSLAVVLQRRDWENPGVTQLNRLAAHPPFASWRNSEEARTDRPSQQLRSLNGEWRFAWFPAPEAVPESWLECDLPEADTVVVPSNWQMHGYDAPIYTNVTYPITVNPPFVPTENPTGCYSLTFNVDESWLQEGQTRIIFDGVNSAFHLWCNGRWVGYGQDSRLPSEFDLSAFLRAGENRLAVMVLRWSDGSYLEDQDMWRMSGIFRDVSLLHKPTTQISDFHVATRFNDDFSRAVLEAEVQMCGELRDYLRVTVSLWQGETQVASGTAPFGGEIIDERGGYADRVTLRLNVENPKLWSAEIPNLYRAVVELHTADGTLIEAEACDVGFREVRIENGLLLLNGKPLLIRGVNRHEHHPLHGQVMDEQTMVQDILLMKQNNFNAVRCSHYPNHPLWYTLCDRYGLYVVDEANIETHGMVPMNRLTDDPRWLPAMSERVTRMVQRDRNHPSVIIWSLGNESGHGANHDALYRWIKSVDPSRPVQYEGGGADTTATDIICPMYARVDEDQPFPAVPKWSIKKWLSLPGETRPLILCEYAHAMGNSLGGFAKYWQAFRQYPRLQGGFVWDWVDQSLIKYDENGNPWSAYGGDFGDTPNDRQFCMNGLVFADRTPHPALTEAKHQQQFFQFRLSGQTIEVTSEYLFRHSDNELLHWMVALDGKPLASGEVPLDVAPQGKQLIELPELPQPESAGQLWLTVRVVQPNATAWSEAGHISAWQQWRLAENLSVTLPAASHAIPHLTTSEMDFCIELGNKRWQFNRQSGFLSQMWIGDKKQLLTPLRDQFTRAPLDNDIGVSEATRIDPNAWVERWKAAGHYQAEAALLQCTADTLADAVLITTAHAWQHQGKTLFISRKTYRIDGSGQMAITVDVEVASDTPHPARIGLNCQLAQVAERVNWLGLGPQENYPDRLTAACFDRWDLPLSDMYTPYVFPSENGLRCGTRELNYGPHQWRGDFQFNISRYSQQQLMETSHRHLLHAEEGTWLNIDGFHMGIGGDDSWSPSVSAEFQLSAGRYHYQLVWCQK
Protocol: Study of the Hydrolysis Reaction of A13bG
The in vitro enzymatic hydrolysis reaction was carried out using E. coli-derived β-galactosidase (Sigma) in PBS solution (0.01 M, pH 7.3) at a reaction concentration of 10 μM for both A13 and A13bG, and for 6 hours at 37 °C after the addition of β-galactosidase (10 U/μM). The hydrolysis reaction was monitored by the high performance liquid chromatography (HPLC). The compound A13 and the prodrug A13bG without enzyme reaction were analyzed by HPLC at the same conditions as the references. The chromatographic column model: Waters Acquity BEH C4, the conditions: 0.04 ml/min, (water (0.1% acetic acid)): the acetonitrile gradient elution: 98:2 1 min, 5:95 13 min, 5:95 18 min, 2:98 20 min.

[4] = liver microsomal metabolic stability, mouse
Protocol: as §3, §4, §5, §6, §7, §8, §9

[5] = liver microsomal metabolic stability, all species; type: in vitro ADME, rat and mouse; settings: human, monkey, canine, rat, mouse; Table 4
Protocol: as §3
The entire experiment was performed in triplicate. All data calculations were performed by Microsoft Excel software. Peak areas were detected by extracting the ionic spectrum.
The in vitro half-life (t1/2) was calculated by slope: in vitro t½=0.693/k

[6] = plasma metabolic stability, rat; type: in vitro ADME; settings: 120 min
Protocol: as §1, §2

[7] = liver microsomal metabolic stability, canine
Protocol: as §3, §4, §5, §6, §7, §8, §9

[8] = plasma metabolic stability, all species; type: in vitro ADME; settings: human, monkey, canine, rat, and mouse; preliminary test
Protocol: as §1, §2

[9] = liver microsomal metabolic stability, monkey
Protocol: as §3, §4, §5, §6, §7, §8, §9

[10] = system: senescent cells (HEF, HELF, A549, MRC5, BJ, HUVEC); assay: in vitro killing of senescent cells, multiple cell models (CCK-8); type: cell-based, human; settings: FIG. 3B-3G
Source text: (§10) Induction of the Cellular Senescence

[11] = plasma metabolic stability, mouse; type: in vitro ADME; settings: 120 min
Protocol: as §1, §2

[12] = system: HELF cells (primary human embryonic lung fibroblast); assay: in vitro killing of induced senescent HELF cells (CCK-8); type: cell-based; settings: lung-derived, FIG. 3C
Source text: as §10

[13] = liver microsomal metabolic stability, rat
Protocol: as §3, §4, §5, §6, §7, §8, §9

[14] = system: BJ cells (human skin fibroblast cell line); assay: in vitro killing of induced senescent BJ cells (CCK-8); type: cell-based; settings: human skin-derived fibroblasts, FIG. 3D
Source text: as §10

[15] = 10 μM prodrug, read-out: The peak area after normalisation at minute 120, oxidative dehydrogenation metabolite
[16] = 10 μM, read-out: The peak area after normalisation at minute 120, initial drug

Cc1c(-c2ccc(N3CCc4cccc(C(=O)Nc5nc6ccccc6s5)c4C3)nc2C(=O)OCc2ccc(O[C@@H]3O[C@H](CO)[C@H](O)[C@H](O)[C@H]3O)c([N+](=O)[O-])c2)cnn1CC12CC3CC(CC(C3)C1)C2 [Compound A13bGa1]
metabolised at 2 h, 10 µM [1, 15]: 0.48% | remaining at 2 h, 10 µM [1, 16]: 99.5% | The hepatic extraction ratio (E) [2]: 0.86 | The predicted intrinsic hepatic clearance Clint ([2]; Fu and RB assumed to be 1): 17.90 mL/min/kg | CLint scaled at 1 h, 1 µM ([2]; microsomes): 132 mL/min/kg | half-life at 1 h, 1 µM ([2]; microsomes): 13.1 min | microsomal CLint at 1 h, 1 µM ([2]; microsomes): 106 µL/min/mg | hydrolysis under the action of β-gal enzyme, release of the parent compound A13 [3]: hydrolysed under the action of β-gal enzyme to release the parent compound A13 | The hepatic extraction ratio (E) [4]: 0.40 | The intrinsic clearance in vitro Clint ([4]; 1 μM, 60 min): 13.79 μL/min/mg protein | The predicted intrinsic hepatic clearance Clint ([4]; Fu and RB assumed to be 1): 36.24 mL/min/kg | CLint scaled at 1 µM ([4]; microsomes): 60.7 mL/min/kg | half-life at 1 h, 1 µM ([4]; microsomes): 101 min | liver microsomal metabolic stability [5]: good moderate metabolic stability | metabolised at 2 h, 10 µM [6, 15]: 0.13% | remaining at 2 h, 10 µM [6, 16]: 99.9% | The hepatic extraction ratio (E) ([7]; canine): 0.70 | The intrinsic clearance in vitro Clint ([7]; canine, 1 μM, 60 min): 29.31 μL/min/mg protein | The predicted intrinsic hepatic clearance Clint ([7]; canine, Fu and RB assumed to be 1): 21.72 mL/min/kg | CLint scaled at 1 µM ([7]; dog, microsomes): 73.1 mL/min/kg | half-life at 1 h, 1 µM ([7]; dog, microsomes): 47.3 min | stability in the plasma [8]: highly stable | The hepatic extraction ratio (E) [9]: 0.69 | The intrinsic clearance in vitro Clint ([9]; 1 μM, 60 min): 65.35 μL/min/mg protein | The predicted intrinsic hepatic clearance Clint ([9]; Fu and RB assumed to be 1): 30.18 mL/min/kg | CLint scaled at 1 µM ([9]; microsomes): 98 mL/min/kg | half-life at 1 h, 1 µM ([9]; microsomes): 21.2 min | overall killing activity on the senescent cells compared with the parent compound A13 [10]: somewhat reduced compared with that of the parent compound A13 | metabolised at 2 h, 10 µM [11, 15]: 0.04% | remaining at 2 h, 10 µM [11, 16]: 100% | killing of the senescent cells, efficiency and selectivity [12]: highly efficient and selective in killing the senescent cells | The hepatic extraction ratio (E) [13]: 0.34 | The intrinsic clearance in vitro Clint ([13]; 1 μM, 60 min): 15.81 μL/min/mg protein | The predicted intrinsic hepatic clearance Clint ([13]; Fu and RB assumed to be 1): 18.72 mL/min/kg | CLint scaled at 1 µM ([13]; microsomes): 28.3 mL/min/kg | half-life at 1 h, 1 µM ([13]; microsomes): 87.7 min | killing of the senescent cells, efficiency and selectivity [14]: highly efficient and selective in killing the senescent cells
